Assay results: patent US6809112B2, “Method of treating sexual disturbances” (priority 1999, dated 2004)

What was measured:
Format in all cases: in vivo, human
[1] = tested on: patient with Hypoactive Sexual Desire Disorder; test: Treatment of Hypoactive Sexual Desire Disorder in a patient (Examples A, I); conditions: 1 mg/dose 0.5 hr before sexual activity, examined after one month, patient report
From the text: A 44 kg, patient is referred by their psychologist for evaluation for and medical treatment of hypoactive sexual desire disorder. The patient recently began to co-habitate with a person. They consulted a clinical psychologist because of distress over frequent arguments with their partner. These arguments concern their frustration that their partner is unwilling to marry them and the partner's accusations that they are sexually unresponsive and “boring in bed.” The patient reports that although they desire to continue the relationship, they have little or no interest in sexual activity with this partner. The partner initiates all sexual activity in the relationship and they comply so that the relationship will continue. They state that their partner desires sexual intercourse about once per day. Occasionally, the couple's frequency of sexual intercourse is as much as twice per day. […] They currently take no prescription drugs other than low dose birth control pills. […] The patient is diagnosed as having Hypoactive Sexual Desire Disorder of acquired onset due to situational factor (Diagnostic and Statistical Manual of Mental Disorders, Fourth Edition, 1994). (5R)-(methylamino)-5,6-dihydro-4H-imidazo[4,5,1-ij]quinolin-2(1H)-one (Z)-2-butenedioate (1:1) is prescribed at 1 mg/dose to be taken 0.5 hr before the patient intends to engage in sexual activity. The patient is instructed that they may use the drug on a daily basis, if they and their partner desire sexual activity at this frequency. They are also instructed that on occasions they may use the drug twice in a single day if this is the intended frequency of intercourse. The patient is examined after one month. They report that they use the drug once, and occasionally twice, per day. […] They also report that they and their partner argue less frequently and that their partner no longer accuses them of being disinterested in sexual relations. The patient is instructed to continue using the drug.

[2] = tested on: patient with Male Erectile Disorder; test: Treatment of Male Erectile Disorder (Examples C, K); conditions: 3 mg/dose 0.5 hr before sexual activity; examined after one month; patient report
From the text: A 75 kg, patient has been married for 20 years. They present complaining that for the past six months they have had difficulty maintaining an erection until completion of sexual intercourse. They develop an adequate erection at the beginning of sexual activity but detumescence occurs when they attempt penetration. Their spouse is their only current sexual partner. They report that their spouse is patient and understanding of their problem but that they are embarrassed, feels that they are a failure, and is growing progressively more angry and sad about their inability to maintain an erection. They masturbate approximately twice each month. During masturbation, they are usually able to maintain an erection until they ejaculate. […] The only remarkable findings were a supine diastolic blood pressure 94 mm mercury and a total plasma cholesterol level of 230 mg/dl. They were instructed to follow the American Heart Association dietary recommendations and to reduce their body weight by 5 kg. They currently take no prescription drugs. […] The patient is diagnosed as having Male Erectile Disorder that is acquired and situational. The etiology is most likely due to psychological factors, although combined factors, e.g., mild hypertension or atherosclerosis, may contribute (Diagnostic and Statistical Manual of Mental Disorders, Fourth Edition, 1994). (5R)-(methylamino)-5,6-dihydro-4H-imidazo[4,5,1-ij]quinolin-2(1H)-one (Z)-2-butenedioate (1:1) is prescribed at 3 mg/dose to be taken 0.5 hr before the patient intends to engage in sexual activity. The patient is instructed that they may use the drug on a daily basis, if this is the intended frequency of sexual activity. The patient is examined after one month. They report that they use the drug prior to intercourse. […] The patient is instructed to continue using the drug.

[3] = tested on: patient with Male Orgasmic Disorder; test: Treatment of Male Orgasmic Disorder (Examples E, M); conditions: 3 mg/dose 0.5-1 hr before sexual activity; examined after one month; patient report
From the text: A 80 kg, person has been married for 15 years. They present complaining that they have begun to have difficulty achieving an orgasm during vaginal intercourse with their spouse. On most occasions they are unable to ejaculate during sexual intercourse. Infrequently, they are able to ejaculate during sexual, but only after very prolonged vaginal intercourse. […] Their further reports that their spouse finds the prolonged intercourse that they require to ejaculate uncomfortable and has begun avoiding sexual relations. They report that they ejaculate normally when they masturbate. […] They currently take no prescription drugs. […] The patient is diagnosed as having Male Orgasmic Disorder that is acquired and situational due to psychological factors (Diagnostic and Statistical Manual of Mental Disorders, Fourth Edition, 1994). (5R)-(methylamino) -5,6-dihydro-4H-imidazo[4,5,1-ij]quinolin-2(1H)-one (Z)-2-butenedioate (1:1) is prescribed at 3 mg/dose to be taken 0.5-1 hr before the patient intends to engage in sexual activity. The patient is instructed that they may use the drug on a daily basis, if this is the intended frequency of sexual activity. The patient is examined after one month. […] The patient is instructed to continue using the drug.

[4] = tested on: patient with erectile dysfunction and hypoactive sexual desire disorder; test: Treatment of patient with erectile dysfunction and Hypoactive Sexual Desire Disorder, combination with sildenafil (Examples H, P); conditions: 3 mg/dose in combination with sildenafil (VIAGRA Tablets) 50 mg/dose, orally about 0.5 hr before sexual activity, 2-3 times per week; after one month
From the text: A 70 kg patient is apparently in good health. They present complaining of a loss of sexual desire and frequent erectile dysfunction since taking an executive position in their company, six weeks previously. They report that they work long hours and feels a high degree of pressure associated with their job. They are frustrated and angry that when they take time off from work they are unable to have an intimate relationship with their spouse. They report that although they are periodically interested in initiating sexual relations, on most occasions they are unable to maintain a high level of interest sufficiently long to initiate or to adequately respond to their spouse's initiating sexual activity. […] They develop a semi-rigid erection at the beginning of sexual activity but detumescence occurs when they attempt penetration. They report that they have few erotic fantasies. They have not masturbated for the past several months. They attribute this to a lack of motivation and interest. […] (5R)-(methylamino)-5,6-dihydro-4H-imidazo[4,5,1-ij]quinolin-2(1H)-one (Z)-2-butenedioate (1:1), 3 mg/dose, and sildenafil (VIAGRA Tablets), 50 mg/dose, are both prescribed. Each is to be taken orally about 0.5 hr before the patient intends to engage in sexual activity. The patient is instructed that they may use the drug combination on a daily basis, if this is the intended frequency of sexual activity. The patient is examined after one month. They report that they take the drug combination 2-3 times per week. […] The patient is advised to continue taking the (5R)-(methylamino)-5,6-dihydro-4H-imidazo[4,5,1-ij]quinolin-2(1H)-one (Z)-2-butenedioate (1:1) for another six months as they adapt to the situational stress associated with their new job. After this time they are advised to stop taking the drug for a period of two weeks to determine whether their sexual motivation and desire have returned to the level they enjoyed prior to the change in jobs.

## CN[C@@H]1Cc2cccc3[nH]c(=O)n(c23)C1.O=C(O)/C=C\C(=O)O [(5R)-(methylamino)-5,6-dihydro-4H-imidazo[4,5,1-ij]quinolin-2(1H)-one (Z)-2-butenedioate (1:1)]
[1]; once, occasionally twice, per day
  frequency of sexual fantasies: 3-4 occasions per week
[1]
  initiation of sexual activity: occasionally initiates sexual activity with their partner
  treatment effect (sexual relationship): enjoys an improved sexual relationship with their partner
[2]
  ejaculation: usually experiences intra-vaginal ejaculation
  maintenance of erection: maintains an erection for a satisfactory period after vaginal penetration in almost every attempt at intercourse
  treatment effect (quality of sexual relationship): markedly improved
[3]
  ejaculation during vaginal intercourse: ejaculates during vaginal intercourse on all occasions
  treatment effect (quality of sexual relationship): markedly improved
[4]
  maintenance of erection: no difficulty maintaining an erection to completion of sexual intercourse
  sexual fantasies: readily has sexual fantasies that are sustained during sexual intercourse
  sexual motivation: feels motivated to initiate sexual activity
  treatment effect (sexual relationship): enjoys an improved sexual relationship with their partner

## CN[C@@H]1Cc2cccc3[nH]c(=S)n(c23)C1 [(5R)-5-(Methylamino)-5,6-dihydro-4H-imidazo[4,5,1-ij]quinoline-2(1H)-thione]
[1]
  treatment effect (sexual relationship): same positive treatment effect
[2]
  treatment effect (quality of sexual relationship): same positive treatment effect
[3]
  treatment effect (quality of sexual relationship): same positive treatment effect
[4]
  treatment effect (sexual relationship): same positive treatment effect
